Reference: patent US8637467B2, “Pharmaceutical being used for treating cancer and fibrosis disease and the composition and uses thereof” (Wuxi MTLH Biotechnology Co., Ltd., priority 2008, dated 2014)
Where no end group is shown, it is not given here.

Assays:
[1] = tested on: Rat CC14 liver damage model; assay: Rat CC14 liver damage model (chronic liver fibrosis); assay type: in vivo, SD rat; parameters: Liver parameters: unit not given here
Procedure: To evaluate the protective effect of peptide SEQ ID NO:1 on liver damage, we used chronic liver fibrosis model (rat CC14 model) for efficacy evaluation.
Rat CC14 liver damage model
(1) Control group: saline, sc, 2 ml/kg, 10 rats
(2) model group: 40% CC14, sc, 2 ml/kg, 17 rats
(3) Gan-li-xin group: 25 mg/kg, iv, 10 ml/kg, 15 rats
(4) Prevention, high dose group: 50 μg peptide SEQ ID NO:1/kg, iv, 10 ml/kg, 17 rats
(5) Prevention, low dose group: 10 μg peptide SEQ ID NO:1/kg, iv, 10 ml/kg, 17 rats
(6) Treatment, high dose group: 100 μg peptide SEQ ID NO:1/kg, iv, 10 ml/kg, 17 rats
(7) Treatment, high dose group: 20 μg peptide SEQ ID NO:1/kg, iv, 10 ml/kg, 17 rats
Except for control group, inject 40% CC14 subcutaneously twice (Tuesday, and Friday) every week in Group (2) to (6), drug volume (0.2 ml/100 g, the first time 0.5 ml/100 g). CC14 Model construction is 6 weeks. Parallel to the model construction, inject intravenously peptide SEQ ID NO:1 at 50 μg/kg and 10 μg/kg in group (4) and (5), respectively, once a day for 6 weeks. For Group (3), (6), and (7), starting from week 5, inject Gan-li-xin 25 mg/kg, peptide SEQ ID NO:1 at 100 μg/kg and 20 μg/kg, respectively, once a day, continuously for 2 weeks.
All rats were weighed once a week during model construction and drug injection. According to weight, the dose of drugs is adjusted. 24 hours after the last time of CC14 injection, liver weight parameters were examined.
Blood was extracted from femoral artery and serum was separated. The following parameters were examined: serum alanine aminotransferase (ALT), aspartate aminotransferase (AST), Bilirubin (TB), Alkaline phosphatase (ALP), total protein (TP), albumin (ALB), globulin (G), albumin/globulin ratio (A/G), glucose (GLU), total cholesterol (TCH), triglyceride (TG).
Liver homogenate: to examine cholesterol (TCH), triglyceride (TG), alanine aminotransferase (ALT), and aspartate aminotransferase (AST).
[…], dry at 110 C, examine Hydroxyproline (HPA).
Part of the liver is fixed in formalin for histology examination.

[2] = tested on: BEL-7402; assay type: cell-based, Human; conditions: 72 h
Procedure: (§1) 2. Cell Lines • Human liver cancer cell line (SMMC-7721, BEL-7402, BEL-7402) were purchased from National Medical Academy of Sciences Tissue Bank and Chinese Academy of Sciences, Shanghai Cell line Research Institute.
(§2) 3. Cell Culture • All cell lines were incubated at 37C, 5% CO2 incubator with saturated humidity. Culture media was RPMI1640 media with 10% heat inactivated FBS, penicillin 100 u/ml, streptomycin 100 u/ml. After 48 hours media was changed. Cells were released with 0.25% trypsin and propagate. Cells used in the experiment were in log phase. Cell viability was determined using trypan blue staining.
(§3) 4. Methods • Take cells at log phase and release with 0.125% trypsin+0.01% EDTA and dilute cells to 2-4×10^4 cells/ml. Cells were placed in 96 well plate (180 ul/well), and were incubated at 37 C CO2 incubator for 24 hours. Media was changed, then peptide SEQ ID No:1 was added to the well (20 ul/well), incubate for 72 hours. Add MTT into 96 well plate (20 ul/well), and incubate for 4 hours. Media was removed, add DMSO (150 ul/well). The plate was shaken for 10 minutes. 7 concentration points (0.1 to 10 uM) was examined. Absorbance at 570 nm was measured for each well to calculate the IC50. IC50=(O.D. at well with no peptide−O.D. at well with peptide)/O.D. at well with no peptide

[3] = tested on: BEL-7404; assay type: cell-based, Human; conditions: 72 h
Procedure: as §1, §2, §3

[4] = tested on: SMMC-7721; assay type: cell-based, Human; conditions: 72 h
Procedure: as §1, §2, §3

[5] = Mice weight in xenograph tumor mice models; assay type: in vivo, BALB/cA nude mice; conditions: all the xenograph tumor mice models, different concentration
Procedure: The tumor of xenograph nude mice grew to 100˜300 mm^3. Tumor mice were divided into different groups for drug testing. In the experiment below, there were 12 nude mice in negative control group, and 6 nude mice in the group with tested drug. Tumor diameter was measured three times each week, and mice weight was measured at the same time.

[6] = Prevention, High dose 50 μg/kg iv, once a day for 6 weeks
[7] = Prevention, low dose 10 μg/kg iv, once a day for 6 weeks
[8] = Treatment, High dose 100 μg/kg iv, once a day for 2 weeks from week 5
[9] = Treatment, low dose 20 μg/kg iv, once a day for 2 weeks from week 5

SKVTKKYHEVLQLRPKTGVRGLHKSLTDVALEHHEECDCVCRGSTGG-OH (cysteines drawn unpaired) [Peptide SEQ ID NO:1]
ALB (albumin), serum [1, 6]: 20.8 ± 2.0 g/L
ALP (alkaline phosphatase), serum [1, 6]: 266.3 ± 85.7 IU/L
ALT (alanine aminotransferase), serum [1, 6]: 75 ± 29.4 IU/L
AST (aspartate aminotransferase), serum [1, 6]: 236.8 ± 27.2 IU/L
Bilirubin, serum [1, 6]: 3.3 ± 0.1 µmol/L
GLU (glucose), serum [1, 6]: 6.5 ± 0.9 mmol/L
Liver parameters [1, 6]: 4.3 ± 0.4
Liver weight [1, 6]: 12.1 ± 2.5 g
TCH (total cholesterol), serum [1, 6]: 1.9 ± 0.3 mmol/L
TG (triglyceride), serum [1, 6]: 0.6 ± 0.1 mmol/L
TP (total protein), serum [1, 6]: 68.3 ± 4.1 g/L
hydroxyproline amount in rat liver [1, 6]: 0.216 ± 0.062 ug/mg wet weight
ALB (albumin), serum [1, 7]: 18.8 ± 2.4 g/L
ALP (alkaline phosphatase), serum [1, 7]: 304.3 ± 90.4 IU/L
ALT (alanine aminotransferase), serum [1, 7]: 80.6 ± 21.3 IU/L
AST (aspartate aminotransferase), serum [1, 7]: 248.8 ± 38.3 IU/L
Bilirubin, serum [1, 7]: 3.3 ± 0.5 µmol/L
GLU (glucose), serum [1, 7]: 6.2 ± 0.7 mmol/L
Liver parameters [1, 7]: 4.1 ± 0.4
Liver weight [1, 7]: 11.3 ± 2.5 g
TCH (total cholesterol), serum [1, 7]: 1.6 ± 0.3 mmol/L
TG (triglyceride), serum [1, 7]: 0.6 ± 0.2 mmol/L
TP (total protein), serum [1, 7]: 66.4 ± 4.6 g/L
hydroxyproline amount in rat liver [1, 7]: 0.192 ± 0.045 ug/mg wet weight
ALB (albumin), serum [1, 8]: 19.7 ± 3.7 g/L
ALP (alkaline phosphatase), serum [1, 8]: 216.5 ± 91.0 IU/L
ALT (alanine aminotransferase), serum [1, 8]: 69.8 ± 31.3 IU/L
AST (aspartate aminotransferase), serum [1, 8]: 219.6 ± 56.7 IU/L
Bilirubin, serum [1, 8]: 2.9 ± 0.4 µmol/L
GLU (glucose), serum [1, 8]: 6.3 ± 1.0 mmol/L
Liver parameters [1, 8]: 4.0 ± 0.5
Liver weight [1, 8]: 10.1 ± 3.2 g
TCH (total cholesterol), serum [1, 8]: 2.1 ± 0.8 mmol/L
TG (triglyceride), serum [1, 8]: 0.5 ± 0.2 mmol/L
TP (total protein), serum [1, 8]: 70.4 ± 4.4 g/L
hydroxyproline amount in rat liver [1, 8]: 0.165 ± 0.038 ug/mg wet weight
ALB (albumin), serum [1, 9]: 18.8 ± 2.5 g/L
ALP (alkaline phosphatase), serum [1, 9]: 357.1 ± 120.7 IU/L
ALT (alanine aminotransferase), serum [1, 9]: 90.9 ± 37.3 IU/L
AST (aspartate aminotransferase), serum [1, 9]: 260.0 ± 73.1 IU/L
Bilirubin, serum [1, 9]: 3.3 ± 0.8 µmol/L
GLU (glucose), serum [1, 9]: 6.1 ± 0.9 mmol/L
Liver parameters [1, 9]: 4.4 ± 0.8
Liver weight [1, 9]: 12.9 ± 4.7 g
TCH (total cholesterol), serum [1, 9]: 1.6 ± 0.5 mmol/L
TG (triglyceride), serum [1, 9]: 0.5 ± 0.2 mmol/L
TP (total protein), serum [1, 9]: 69.1 ± 6.1 g/L
hydroxyproline amount in rat liver [1, 9]: 0.222 ± 0.048 ug/mg wet weight
steatosis and fat cavities in liver cells (histology) ([1]; prevention high dose group, 3 cases): 50-60%
steatosis and fat cavities in liver cells (histology) ([1]; prevention high dose group, 5 cases): 60-80%
steatosis and fat cavities in liver cells (histology) ([1]; prevention low dose group, all cases): 60-80%
liver damage caused by CC14 in rat (summary) ([1]; serum biochemical parameters, liver hydroxyproline amount, liver pathological features): can improve liver damage caused by CC14 in rat
steatosis and fat cavities in liver cells (histology) ([1]; treatment high dose group, 2 cases): Over 80%
steatosis and fat cavities in liver cells (histology) ([1]; treatment high dose group, 2 cases with less steatosis): 50-60%
steatosis and fat cavities in liver cells (histology) ([1]; treatment high dose group, 4 cases with even less steatosis): < 30%
IC50 [2]: 1.78 µM
IC50 [3]: 2.33 µM
IC50 [4]: 1.25 µM
weight of the mice [5]: not affected
